In the assay the target is T1, NHE-1 (Homo sapiens, UniProt P19634).
T1 construct: NHE-1 isoform which is predominantly present in human platelets; endogenous in cells; host or cells: human platelets (platelet rich plasma from blood of healthy volunteers)
The experiment in a line: Primary screening assay in human platelets (acidified human platelet swelling assay). In kind it is cell-based. As to conditions: concentration required to inhibit 50% of NHE-1 activity in isolated human platelets; mean of three readings, PRP from three donors. As to the method: Experiments on inhibition of NHE in human platelets are based on those published in (Cardiovasc. Res. 29: 260-268, (1995), J. Med. Chem. 41, 3736-3747, (1998)) Blood (150 mL) collected in a siliconized glass bottle from healthy volunteers was treated with aqueous acid citrate dextrose (ACD) solution (25 mL) [composition: citric acid (38 mM/L), glucose (136 mM/L) and trisodium citrate (75 mM/L)] and immediately centrifuged at 200 g for 20 min. The platelet rich plasma (PRP) was separated and a platelet count carried out using a Beckman Coulter A^c T® cell counter. The cell count was adjusted to 3×10^8 platelets/mL using platelet free plasma.
Activation of Na^+/H^+ exchanger by intracellular acidification: 150 μL of PRP was added to 750 μL of propionate buffer [composition: KCl (5 mM/L), CaCl2 (1 mM/L), MgCl2 (1 mM/L), glucose (10 mM/L), HEPES (20 mM/L), sodium propionate (140 mM/L)] of pH 6.6, in a cuvette. Optical density was recorded at 630 nm using a Shimadzu spectrophotometer (UV 1601). The micromolar concentrations of a few representative compounds required to inhibit 50% of NHE-1 activity (IC50), in isolated human platelets (acidified human platelet swelling assay) is shown in Table 2. IC50 values are the mean of three experimental readings using PRP isolated from the blood of three different donors.

Counter-ions that a name gives are not always drawn.

T1 sequence (P19634 whole entry, canonical isoform): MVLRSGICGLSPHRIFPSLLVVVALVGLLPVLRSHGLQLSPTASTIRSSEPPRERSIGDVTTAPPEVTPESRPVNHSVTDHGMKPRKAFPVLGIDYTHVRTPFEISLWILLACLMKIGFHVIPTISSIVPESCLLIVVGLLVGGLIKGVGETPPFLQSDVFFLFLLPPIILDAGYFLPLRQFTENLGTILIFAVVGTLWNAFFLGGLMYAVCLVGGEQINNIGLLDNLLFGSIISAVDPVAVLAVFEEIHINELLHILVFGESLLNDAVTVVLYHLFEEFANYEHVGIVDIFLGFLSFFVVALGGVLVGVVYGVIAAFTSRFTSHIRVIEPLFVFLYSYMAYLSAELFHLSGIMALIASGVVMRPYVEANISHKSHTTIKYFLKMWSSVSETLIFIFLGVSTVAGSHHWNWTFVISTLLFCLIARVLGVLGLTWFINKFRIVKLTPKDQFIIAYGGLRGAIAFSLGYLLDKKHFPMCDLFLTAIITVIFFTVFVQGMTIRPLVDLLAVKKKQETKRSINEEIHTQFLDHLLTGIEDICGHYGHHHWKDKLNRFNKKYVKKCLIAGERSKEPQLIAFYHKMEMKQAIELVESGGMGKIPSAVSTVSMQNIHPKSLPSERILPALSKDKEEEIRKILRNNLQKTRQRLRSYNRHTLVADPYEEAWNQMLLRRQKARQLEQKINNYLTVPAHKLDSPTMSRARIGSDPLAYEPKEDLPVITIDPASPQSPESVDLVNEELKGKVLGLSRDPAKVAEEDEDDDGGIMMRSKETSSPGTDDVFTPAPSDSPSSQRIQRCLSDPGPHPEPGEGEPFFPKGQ

On to `Cc1cc2c(cc1C(=O)N=C(N)N)S(=O)(=O)Cc1ccccc1O2` [Example 27, N-(7-Methyl-10,10-dioxo-10,11-dihydro-5-oxa-10lambda*6*-thia-dibenzo[a,d]cycloheptene-8-carbonyl)-guanidine, methane sulfonic acid salt], for which the IC50 (in general, the point on the concentration scale where inhibition reaches its midpoint) is 0.1 µM.

For the compound `Cc1cc(C(=O)N=C(N)N)cc2c1Oc1c(cccc1C(C)C)CS2(=O)=O` [Example 31, N-(4-Isopropyl-6-methyl-10,10-dioxo-10,11-dihydro-5-oxa-10lambda*6*-thia-dibenzo[a,d]cycloheptene-8-carbonyl)-guanidine, methane sulfonic acid salt], the IC50 worked out at 0.2 µM.

The compound `Cc1cc(C(=O)N=C(N)N)cc2c1Oc1c(Cl)cc(N)cc1CS2(=O)=O` [Example 35, N-(2-Amino-4-chloro-6-methyl-10,10-dioxo-10,11-dihydro-5-oxa-10lambda*6*-thia-dibenzo[a,d]cycloheptene-8-carbonyl)-guanidine, methane sulfonic acid salt] had an IC50 of 0.02 µM.

Take `NC(N)=NC(=O)c1cc(Cl)c2c(c1)S(=O)(=O)Cc1cccc(Cl)c1O2` [Example 45, 4,6-Dichloro-10,10-dioxo-10,11-dihydro-5-oxa-10lambda*6*-thia-dibenzo[a,d]cycloheptene-8-carbonylguanidine, methane sulfonic acid salt]: the IC50 worked out at 0.07 µM.

Compound `Cc1cc(N)cc2c1Oc1c(Cl)cc(C(=O)N=C(N)N)cc1S(=O)(=O)C2` [Example 48, N-(2-Amino-6-chloro-4-methyl-10,10-dioxo-10,11-dihydro-5-oxa-10lambda*6*-thia-dibenzo[a,d]cycloheptene-8-carbonyl)-guanidine, methane sulfonic acid salt] registered an IC50 of 0.04 µM.

In turn, `Cc1cc(C(=O)N=C(N)N)cc2c1Oc1c(Cl)cc(S(=O)(=O)NCc3cccnc3)cc1CS2(=O)=O` [Example 52, 4-Chloro-8-guanidinocarbonyl-6-methyl-10,10-dioxo-10,11-dihydro-5-oxa-10lambda*6*-thia-dibenzo[a,d]cycloheptene-2-sulfonic acid (pyridin-3-ylmethyl)-amide dimesylate] showed an IC50 of 0.08 µM.

`Cc1cc(C(=O)N=C(N)N)cc2c1Oc1c(Cl)cc(N3CCN(C4CC4)CC3=O)cc1CS2(=O)=O` [Example 58, N-[4-Chloro-2-(4-cyclopropyl-2-oxo-piperazin-1-yl)-6-methyl-10,10-dioxo-10,11-dihydro-5-oxa-10lambda*6*-thia-dibenzo[a,d]cycloheptene-8-carbonyl]-guanidine dimesylate] returned an IC50 of 0.087 µM.

Compound `Cc1cc(C(=O)N=C(N)N)cc2c1Oc1c(Cl)cc(NCCn3ccnc3)cc1CS2(=O)=O` [Example 64, N-[4-Chloro-2-(2-imidazol-1-yl-ethylamino)-6-methyl-10,10-dioxo-10,11-dihydro-5-oxa-10lambda*6*-thia-dibenzo[a,d]cycloheptene-8-carbonyl]-guanidine dimesylate] displayed an IC50 of 0.028 µM.

`CCN(CCN1CCCC1)c1cc(Cl)c2c(c1)CS(=O)(=O)c1cc(C(=O)N=C(N)N)cc(C)c1O2` [Example 73, N-{4-Chloro-2-[ethyl-(2-pyrrolidin-1-yl-ethyl)-amino]-6-methyl-10,10-dioxo-10,11-dihydro-5-oxa-10lambda*6*-thia-dibenzo[a,d]cycloheptene-8-carbonyl}-guanidine dimesylate] returned an IC50 of 0.032 µM.

`Cc1cc(C(=O)N=C(N)N)cc2c1Oc1c(Cl)cc(N3CCN(Cc4ccccc4)CC3)cc1CS2(=O)=O` [Example 118, N-[2-(4-Benzyl-piperazin-1-yl)-4-chloro-6-methyl-10,10-dioxo-10,11-dihydro-5-oxa-10lambda*6*-thia-dibenzo[a,d]cycloheptene-8-carbonyl]-guanidine dimesylate] showed an IC50 of 0.1 µM.

Compound `Cc1cc2c(cc1C(=O)N=C(N)N)S(=O)(=O)Cc1ccccc1N2` [Example 183, N-(7-Methyl-10,10-dioxo-10,11-dihydro-5H-10lambda*6*-thia-5-aza-dibenzo[a.d]cycloheptene-8-carbonyl)-guanidine, methane sulfonic acid salt] displayed an IC50 of 0.1 µM.

As for `Cc1cc(C(=O)N=C(N)N)cc2c1N(C)c1c(Cl)cccc1C(C)S2(=O)=O` (stereo not shown) [Example 194, N-(4-Chloro-5,6,11-trimethyl-10,10-dioxo-10,11-dihydro-5H-10lambda*6*-thia-5-aza-dibenzo[a.d]cycloheptene-8-carbonyl)-guanidine, methane sulfonic acid salt], the IC50 stood at 0.2 µM.

`Cc1cc(C(=O)N=C(N)N)cc2c1Oc1c(Cl)cc(CN)cc1CS2(=O)=O` [Example 198, N-(2-Aminomethyl-4-chloro-6-methyl-10,10-dioxo-10,11-dihydro-5-oxa-10lambda*6*-thia-dibenzo[a.d]cycloheptene-8-carbonyl)-guanidine trimesylate] registered an IC50 of 0.03 µM.

(Values after patent US8183234B2, “Tricyclic guanidine derivatives as sodium-proton exchange inhibitors” (Piramal Life Sciences Limited, priority 2004, dated 2012).)
